Test results from patent publication US20030104089A1, “Minari extract for preventing the induction and metastasis of cancer by carcinogens contained in cigarette smoke, fermented foods or alcoholic drinks” (priority 2000, published 2003).

Assays:
[1] = system: PCNA (proliferative cell nuclear antigen); assay: PCNA expression in lung tissue of NNK-treated A/J mice; type: in vivo; settings: single i.p. NNK 4 mg, normal feed, 4 months, compared to water-only-receiving group
Method: The NNK group received a single administration of 4 mg of NNK. The group receiving NNK-Minari received a single administration of NNK and thereafter a feed to which Minari extract was added at a 1.25% (w/w) concentration. The other group received a normal feed. All the groups were allowed take, ad lib., their feeds for 4 months.
A/J mice were divided into three experimental groups: a single intraperitoneal water administration-receiving (+normal feed) group; a single intraperitoneal NNK (4 mg) administration-receiving (+normal feed) group; and a single intraperitoneal NNK administration-receiving (+feed to which Minari extract is added at a concentration of 1.25%) group. Four months later, the expression level of PCNA in each experimental group was measured.

[2] = humans, calculated; cited from earlier work

Row | SMILES | expression level of PCNA [1] | virtually safe dose (VSD) for liver cancer [2] | virtually safe dose (VSD) for lung cancer [2]
1 | CN(CCCC(=O)c1cccnc1)N=O [NNK, {(4-N-methyl-N-nitrosoamino)-1-(3-pyridyl)-1-butanone}] | significantly increased | – | –
2 | CCOC(N)=O [urethane, ethylcarbamate] | – | 7.2×10^−5 mg/kg body weight | 1.8×10^−4 mg/kg body weight
